Experiments:
Format in all cases: physicochemical
[1] = Gel test of gelators; conditions: 3 mg/mL in H2O
Description: Gel test: 0.3 mg/mL in H2O or PBS: clear gel; 0.5 mg/mL in H2O/DMSO (19:1): clear gel; 0.6 mg/mL in H2O/EtOH (19:1): clear gel; 25 mg/ml in EtOH: gel.
Gel test: 3 mg/mL in H2O: gel.
Gel test: 1.0 mg/mL in H2O: gel; acetone 7.0 mg/mL: clear gel.
Gel test: 3 mg/mL in H2O: clear gel.
Gel test: 3.0 mg/mL in H2O: gel

[2] = TEM analysis of particle size in gel or freeze-dried powder
Description: (§1) To a solution containing 4.6 mg (7.6×10^−3 mmol) of cHexAmMetOH gelator and 1.3 mg (3.8×10^−3 mmol) of danazol in 100 μL of DMSO, 900 μL of distilled water were quickly added. […] In a reference sample consisting only of danazol in 100 μL of DMSO and 900 μL of distilled water, rod-shaped danazol particles are 0.5-10 μm wide and 15-53 μm long.
as §1, with “7” for “4.6”, “cHexAmPheOCH2CH2OCH2CH2OH” for “cHexAmMetOH”
Example 6 was repeated but with an increased molar ratio of gelator to danazol, of 5:1.
To a solution containing 1.96 mg (2.9×10^−3 mmol) of cHexAm(PheAQ)(CH2CH2OCH2CH2OH)2 gelator and 1.0 mg (2.9×10^−3 mmol) of danazol in 50 μL of DMSO, 950 μL of distilled water were quickly added.
In a reference sample consisting only of danazol in 100 μL of DMSO to which 900 μL of distilled water was added, rod-shaped danazol particles were formed, which were 0.5-10 μm wide and 15-53 μm long.
Example 8 was repeated with an increased molar ratio of gelator to danazol (from 1:1 to 2:1).
Freeze-drying of a gel containing cHexAmPheOCH2CH2OCH2CH2OH and danazol in a 5:1 molar ratio, in DMSO/water mixture (50 μL/950 μL) yielded a dry powder of gelator and danazol.
Freeze-drying of a gel containing cHexAm(PheAQ)(CH2CH2O CH2CH2OH)2 and danazol in a 5:1 molar ratio, in DMSO/water (50 μL/950 μL) yielded a dry powder of gelator and danazol. […]

[3] = Optical microscopy of gels and reference solutions
Description: Furosemide, 5 mg, (15×10^−3 mmol), together with 12.5 mg (20×10^−3 mmol) of cHexAm(PheAmBn)(CH2CH2OCH2CH2OH)2 (A), or 12.9 mg (20×10^−3 mmol) of cHexAm(PheAmPhOMe)(CH2CH2OCH2CH2OH)2 (B), or 18.4 mg (20×10^−3 mmol) of cHexAmPheOCH2CH2OCH2CH2OH(C), were dissolved in 50 μL of propylene glycol, 50 μL of PEG400, and 900 μL of water by heating until a clear solution was obtained. As reference, a sample without gelator was prepared (D).
Danazol, 1 mg, (3×10^−3 mmol), together with 3.9 mg (6×10^−3 mmol) of cHexAm(PheAmAQ)(CH2CH2OCH2CH2OH)2 (A), or 5.4 mg (6×10^−3 mmol) of cHexAmPheOCH2CH2OCH2CH2OH (B), were dissolved in 50 μL of DMSO and 950 μL of distilled water by heating until a clear solution was obtained. As reference, a sample without gelator was prepared (C).
Cyclosporin A, 2.5 mg, (2.1×10^−3 mmol), together with 6.3 mg (10×10^−3 mmol) of cHexAm(PheAmBn)(CH2CH2OCH2CH2OH)2 (A) or 9.2 mg (10×10^−3 mmol) of cHexAmPheOCH2CH2OCH2CH2OH (B), were dissolved in 25 μL of propylene glycol, 25 μL of PEG400, and 450 μL of distilled water by heating until a clear solution was obtained. As reference, a sample without gelator was prepared (C).

[4] = Stability in time of pyrene particles in a gel (TEM)
Description: To determine the stability in time of pyrene particles in a gel, samples were prepared as in Example 3 and examined with TEM after 7 days, 18 days, 1 month and 2 months. As reference, samples containing only pyrene in DMSO/H2O (100 μL/900 μL) were also prepared. Moreover, to determine the effect of the gelator in solution, i.e. not of the gel, samples containing 4 mg (6.0×10^−3 mmol) of cHexAm(PheAQ)(CH2CH2OCH2CH2OH)2 gelator, 1.22 mg (6.0×10^−3 mmol) of pyrene, 100 μL of DMSO and 900 μL of 1N HCl were prepared. The presence of HCl causes the gelator to dissolve and therefore the sample remains a solution. All samples were kept at room temperature, in the dark. FIG. 1: after 7 days only very few particles, 37-185 nm, are present in the sample; after 18 days more particles, 30-190 nm, can be observed; after 1 month also some crystals, ˜150 nm, can be observed; after 2 months more crystals with sizes ranging from 80 to 200 nm are present. FIG. 2: after 7 days crystals, 0.2-3 μm, can be observed; after 18 days more of such crystals can be observed; after 1 month also larger crystals, 6 μm, can be seen; after 2 months more of such crystals can be observed. FIG. 3: after 7 days, 18 days or 1 month crystals, 0.4 to 9 μm, are present; after 2 months crystals, 2-12 μm, can be observed.

[5] = gel of cHexAm(PheAQ)(CH2CH2OCH2CH2OH)2, 1:1 molar
[6] = gel of cHexAm(PheAQ)(CH2CH2OCH2CH2OH)2, gelator:danazol 2:1
[7] = gel of cHexAm(PheAQ)(CH2CH2OCH2CH2OH)2, gelator:danazol 5:1
[8] = gel of cHexAmPheOCH2CH2OCH2CH2OH, 2:1 molar
[9] = gel of cHexAmPheOCH2CH2OCH2CH2OH, gelator:danazol 5:1
[10] = reference sample, only danazol in 100 μL DMSO and 900 μL water
[11] = FIG. 6 (b): gel of cHexAmPheOCH2CH2OCH2CH2OH, DMSO/water

SMILES: O=C(O)[C@@H]1C[C@H](C(=O)O)C[C@H](C(=O)N[C@@H](Cc2ccccc2)C(=O)NCc2ccccc2)C1 [cHex(AmPheAmBn)(COOH)2]
- Gel test [1]: gel

SMILES: COc1ccc(NC(=O)[C@H](Cc2ccccc2)NC(=O)[C@@H]2C[C@H](C(=O)O)C[C@H](C(=O)O)C2)cc1 [cHex(AmPheAmPhOMe)(COOH)2]
- Gel test [1]: clear gel

SMILES: C#C[C@]1(O)CC[C@H]2[C@@H]3CCC4=Cc5oncc5C[C@]4(C)[C@H]3CC[C@@]21C [danazol]
- average size of danazol particles ([2]; freeze-dried powder of gel of cHexAm(PheAQ)(CH2CH2O CH2CH2OH)2, 5:1, DMSO/water 50/950 μL): 14-70 nm
- width of very few rod-shaped danazol particles ([2]; freeze-dried powder of gel of cHexAmPheOCH2CH2OCH2CH2OH, 5:1): 500-900 nm
- average size of danazol particles ([2]; freeze-dried powder of gel of cHexAmPheOCH2CH2OCH2CH2OH, 5:1, DMSO/water 50/950 μL): 20 nm
- length of some rod-shaped danazol particles [2, 5]: 9 μm
- width of some rod-shaped danazol particles [2, 5]: 0.7 μm
- average size of danazol particles ([2]; gel of cHexAm(PheAQ)(CH2CH2OCH2CH2OH)2, 1:1 molar, DMSO/water 50/950 μL): 140-700 nm
- average size of danazol particles [2, 6]: 28 nm
- size of very few danazol particles [2, 6]: 10 μm
- average size of danazol particles [2, 7]: 14 nm
- size of some danazol particles [2, 7]: 400 nm
- length of rod-shaped danazol particles ([2]; gel of cHexAmMetOH, 2:1 molar, DMSO/water 100/900 μL): 1-10 μm
- length of rod-shaped danazol particles [2, 8]: 0.6-6 μm
- width of rod-shaped danazol particles [2, 8]: 0.2-0.6 μm
- average size of danazol particles [2, 9]: 20 nm
- size of some danazol particles [2, 9]: approximately 200 nm
- length of rod-shaped danazol particles [2, 10]: 15-53 μm
- width of rod-shaped danazol particles [2, 10]: 0.5-10 μm
- amorphous globular particles ([3]; FIG. 6 (a): gel of cHexAm(PheAmAQ)(CH2CH2OCH2CH2OH)2, DMSO/water): < 2 μm
- amorphous globular particles [3, 11]: < 2 μm
- some needle-shaped crystals (long axis) [3, 11]: 25-50 μm
- rod-shaped crystals ([3]; FIG. 6 (c): reference without gelator, DMSO/water): 20-120 μm

SMILES: NS(=O)(=O)c1cc(C(=O)O)c(NCc2ccco2)cc1Cl [furosemide]
- butterfly-shaped crystals (long axis) ([3]; FIG. 5 (a): gel of cHexAm(PheAmBn)(CH2CH2OCH2CH2OH)2, PG/PEG400/water): ~25 μm
- butterfly-shaped crystals (long axis) ([3]; FIG. 5 (b): gel of cHexAm(PheAmPhOMe)(CH2CH2OCH2CH2OH)2, PG/PEG400/water): ~25 μm
- globular crystals ([3]; FIG. 5 (c): gel of cHexAmPheOCH2CH2OCH2CH2OH, PG/PEG400/water): ~25 μm
- rod-shaped crystals (long axis) ([3]; FIG. 5 (d): reference without gelator, PG/PEG400/water): 25-250 μm

SMILES: c1cc2ccc3cccc4ccc(c1)c2c34 [pyrene]
- size of pyrene particles ([4]; gel of cHexAm(PheAQ)(CH2CH2OCH2CH2OH)2, DMSO/H2O, room temperature, dark, after 7 days (FIG. 1)): 37-185 nm
- size of pyrene crystals ([4]; gel of cHexAm(PheAQ)(CH2CH2OCH2CH2OH)2, after 1 month (FIG. 1)): ~150 nm
- size of pyrene particles ([4]; gel of cHexAm(PheAQ)(CH2CH2OCH2CH2OH)2, after 18 days (FIG. 1)): 30-190 nm
- size of larger pyrene crystals ([4]; gelator in solution, DMSO/1N HCl, after 1 month (FIG. 2)): 6 μm
- size of pyrene crystals ([4]; gelator in solution, DMSO/1N HCl, after 7 days (FIG. 2)): 0.2-3 μm
- size of pyrene crystals ([4]; reference, only pyrene in DMSO/H2O, after 2 months (FIG. 3)): 2-12 μm

— patent US8956656B2, “Production of small particles” (Nano Fiber Matrices B.V., priority 2003, dated 2015)
